Experimental data reported in US11124523B2, “2,6-dioxaspiro [4,5] decane derivatives and preparation method therefor and pharmaceutical applications thereof” (SHANDONG LUYE PHARMACEUTICAL CO., LTD., priority 2017, dated 2021).
Structures can show the parent of a compound that is named as a salt.

Key:
[1] = Pharmacokinetics of the compounds in rats; type: in vivo, rat; conditions: for Apparent Clearance Cl: male SD rats, single IV, mg/Kg: Comparative Compound 1 1.80, (+)-5 2.40, (+)-16 1.76, HCl salt of (+)-23 1.71; for Kp at […] / Vd / AUC(0-inf) / half-life / C0: male, SD, rat, iv; for Kp at […]: brain/plasma, read-out: Brain/Plasm Ratio B/P ratio; for Vd / AUC(0-inf) / half-life / C0: plasma; for Vd: read-out: Apparent Distribution Volume Vd; for AUC(0-inf): read-out: Area under the Curve AUC0-inf; for half-life: read-out: Hal-life T1/2 (converted); for C0: read-out: Initial Concentration C0
Description: 6.1 Experimental Purpose: To measure, using a LC/MS/MS method, the medicament concentrations of the compound in plasma and specific tissues at different time points after the compound was administered by a single intravenous injection (IV) to 7-9-week-old male SD rats used as test animals, to study on the pharmacokinetic behavior of the compound of the present disclosure in rats, and to evaluate the pharmacokinetic characteristics thereof. 6.2 Compound Formulation
Each of them was formulated at a concentration of 1 mg/mL and was used for IV (intravenous injection) administration.
The actual weights of the rats were weighed on the day of administration and volumes to be administered were calculated. The above formulated solutions to be administered were administered by injection into caudal veins of rats.
About 0.2 mL of whole blood samples were collected by means of jugular vein puncture at the time set in the experimental protocol, and the actual blood collection time was recorded in the experimental records. All the blood samples were added to labeled plastic centrifuge tubes to which K2-EDTA anticoagulant was added in advance. After the blood samples were collected, they were centrifuged at 3,000 g for 10 minutes at 4° C. to prepare the supernatant plasma, and the plasma was stored at −20° C. or a lower temperature for LC-MS/MS analysis.
The concentrations of the compounds in rat plasma were measured by using high-performance liquid chromatography-tandem mass spectrometry (LC-MS/MS). The retention durations of the compounds and internal standard, chromatogram acquisition, and integration of chromatograms were processed using the software Analyst (Applied Biosystems), and data statistics were processed using the software Watson LIMS (Thermo Fisher Scientific) or Analyst (Applied Biosystems). The plasma concentration was processed using a non-compartmental model of WinNonlin™ Version 6.3 (Pharsight, Mountain View, Calif.) which was a pharmacokinetic software, and the pharmacokinetic parameters were calculated using a linear logarithmic trapezoidal method.

[2] = published Phase 2 clinical trial data; compared to morphine; cited from earlier work

Row | Compound | Apparent Clearance Cl [1] [mL/min/kg] | Kp at […] [1] | Vd [1] [L/kg] | AUC(0-inf) [1] [µM·h] | half-life [1] [min] | C0 [1] [nM] | side effects, Phase 2 clinical trial (in words) [2]
1 | Fc1ccc([C@]2(CCNCc3cccc(Cl)c3)CCO[C@]3(CCOC3)C2)nc1 [(+)-16] | 114 | 4.61 | 6.3 | 0.723 | 54 | 979 | 
2 | Fc1ccc([C@]2(CCNCc3cccc(F)c3)CCO[C@]3(CCOC3)C2)nc1 [Hydrochloride Salt of (+)-23] | 113 | 2.2 | 5 | 0.763 | 42 | 1550 | 
3 | COc1ccsc1CNCC[C@@]1(c2ccccn2)CCOC2(CCCC2)C1 [compound 1, Oliceridine, reference compound] | 74.4 |  | 4.3 | 1.15 | 48 | 1900 | significant reduction in side effects compared to morphine
